Experimental data as given in patent publication US10391096B2, “Method for treating thrombotic disorders using quercetin-containing compositions” (Quercegen Pharmaceuticals LLC, priority 2011, dated 2019).

Legend:
[1] = hypertensive patients; cited from earlier work
[2] = system: platelet aggregation; conditions: in vitro; cited from earlier work
[3] = system: D-dimer; experiment: D-dimer level in blood of hypertensive patients treated with quercetin; assay type: in vivo, humans
Source text: As mentioned above, PDI plays a critical role in the initiation of the coagulation cascade. By blocking this critical enzyme activity, quercetin can prevent thrombus formation. The antithrombotic activity of quercetin can be evaluated in humans by measuring D-dimer levels in plasma samples from patients treated with quercetin. D-dimer, a small protein fragment present in the blood, is a fibrin degradation product. The level of D-dimer in the blood increases after a thrombotic event due to its release from blood clots via fibrinolysis. […] Hypertensive patients are prone to thrombotic events.

For `O=c1c(O)c(-c2ccc(O)c(O)c2)oc2cc(O)cc(O)c12` [Quercetin, quercetin], the blood pressure [1] is given as “reduce blood pressure”, the platelet aggregation [2] is given as “inhibit platelet aggregation” and the “level of D-dimer in blood” value [3] is given as “reduction in the level of D-dimer”.
